Values belong to the molecule of their own block, whether it stands above or below them.
Experiments:
[1] = system: dextran sodium sulfate (DSS)-induced acute colitis; experiment: DSS-induced acute colitis mouse model, Compound 8 (Example 6); assay type: in vivo, C57 BL/6J mice; details: mice, 2 mg/kg/day oral gavage twice daily, 9 day test period
Procedure: Eight week old female C57 BL/6J mice, around 20 g body weight purchased from Charles River Laboratories were bred in specific pathogen free IVC cages (4 mice in each cage) in a temperature controlled (20±2° C.) room with a 12 hour light-dark cycle. Chow pellets and tap water were available ad libitum. All experimental protocols were approved by the Institutional Animal Care and Use Committee. The mice were acclimated at the animal facility for at least of three days before the experiments.
To generate dextran sodium sulfate (DSS)-induced acute colitis, the mice were induced with 3% DSS (molecular weight 36,000-50,000; MP Biomedicals, Santa Ana, CA, USA) in their drinking water for 7 consecutive days, and then switched to normal water. DSS solution was freshly prepared and changed daily. These mice were euthanized on day 8 (9th day of the experiment).
The mice were divided into groups with eight mice in each group. Mice were dosed with either 2 mg/kg/day Compound 8, twice daily in 200 μL distilled water (pH=7.0) by gavage from Day 0 to Day 9. Mice in the vehicle group were given only 200 μL distilled water by gavage.
Body weight and disease activity index (DAI) soring were recorded daily to assess the colitis. DAI score was the sum of the weight loss score, stool score and bleeding subscores. A blinded scoring system was employed to assess the colitis. […]

[2] = target: T1, AhR (Rattus norvegicus, UniProt P41738); experiment: AhR/arnt-luciferase reporter assay in rat H4IIE cells
T1 sequence (P41738 10-853): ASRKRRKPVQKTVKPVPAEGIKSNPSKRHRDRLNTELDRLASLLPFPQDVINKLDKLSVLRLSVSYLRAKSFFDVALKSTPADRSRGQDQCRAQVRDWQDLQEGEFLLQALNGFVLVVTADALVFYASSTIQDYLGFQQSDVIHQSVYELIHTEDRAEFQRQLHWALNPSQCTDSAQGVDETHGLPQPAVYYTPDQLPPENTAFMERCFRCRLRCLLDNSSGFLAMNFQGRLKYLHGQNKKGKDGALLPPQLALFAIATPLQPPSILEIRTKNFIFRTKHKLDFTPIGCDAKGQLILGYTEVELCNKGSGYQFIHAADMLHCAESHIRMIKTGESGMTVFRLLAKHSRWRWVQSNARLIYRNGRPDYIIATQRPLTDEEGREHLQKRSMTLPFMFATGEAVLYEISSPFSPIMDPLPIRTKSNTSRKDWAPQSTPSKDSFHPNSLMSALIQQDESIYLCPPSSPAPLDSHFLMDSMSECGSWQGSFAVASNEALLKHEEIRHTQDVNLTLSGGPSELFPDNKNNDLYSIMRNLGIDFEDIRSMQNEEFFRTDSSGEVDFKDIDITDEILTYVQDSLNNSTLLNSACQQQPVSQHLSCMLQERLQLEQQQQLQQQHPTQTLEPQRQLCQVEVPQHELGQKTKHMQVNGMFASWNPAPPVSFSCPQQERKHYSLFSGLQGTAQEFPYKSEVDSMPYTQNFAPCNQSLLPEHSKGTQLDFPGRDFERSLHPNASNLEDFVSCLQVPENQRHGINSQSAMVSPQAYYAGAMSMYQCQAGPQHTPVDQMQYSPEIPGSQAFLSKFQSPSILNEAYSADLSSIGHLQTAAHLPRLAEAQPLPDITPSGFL
Procedure: (§1) TCDD and MeBio were included in the study as positive controls. These were added into cell culture media containing charcoal-stripped fetal bovine serum to produce a 2× stock and then added to the reporter cells. The reporter cells were human Huh7 cells or Rat H4IIE cell lines with the native AhR and an AhR/arnt-Luciferase reporter vector. The final concentration of DM50 was 0.1%. Cells were incubated for 22 hours at 37° C. prior to addition of the luciferase detection reagent and measurement of activity in relative luminescence units.

[3] = target: T2, AhR (Homo sapiens, UniProt P35869); experiment: AhR/arnt-luciferase reporter assay in human Huh7 cells
T2 sequence (P35869 11-848): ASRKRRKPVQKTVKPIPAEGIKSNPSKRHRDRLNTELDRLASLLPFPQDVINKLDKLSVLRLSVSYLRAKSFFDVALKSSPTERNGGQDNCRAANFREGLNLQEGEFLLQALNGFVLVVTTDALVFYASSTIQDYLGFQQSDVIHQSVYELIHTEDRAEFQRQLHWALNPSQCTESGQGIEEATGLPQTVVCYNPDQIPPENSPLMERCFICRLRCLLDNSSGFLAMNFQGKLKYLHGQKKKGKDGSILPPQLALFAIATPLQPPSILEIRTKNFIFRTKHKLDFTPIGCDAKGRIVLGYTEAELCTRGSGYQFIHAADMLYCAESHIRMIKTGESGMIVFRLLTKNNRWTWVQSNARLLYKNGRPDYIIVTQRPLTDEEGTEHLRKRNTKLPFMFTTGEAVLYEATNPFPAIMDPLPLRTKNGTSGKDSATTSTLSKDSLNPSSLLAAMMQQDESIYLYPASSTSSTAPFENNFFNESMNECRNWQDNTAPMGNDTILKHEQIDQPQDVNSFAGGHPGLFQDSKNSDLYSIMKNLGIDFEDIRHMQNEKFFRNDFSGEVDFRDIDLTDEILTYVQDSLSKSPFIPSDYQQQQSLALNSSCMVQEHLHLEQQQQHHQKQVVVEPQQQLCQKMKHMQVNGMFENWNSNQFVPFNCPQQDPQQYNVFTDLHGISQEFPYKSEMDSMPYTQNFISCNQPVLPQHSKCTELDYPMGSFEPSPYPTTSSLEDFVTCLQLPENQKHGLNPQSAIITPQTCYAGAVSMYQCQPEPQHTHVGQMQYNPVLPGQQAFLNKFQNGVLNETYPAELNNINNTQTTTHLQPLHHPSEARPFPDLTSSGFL
Procedure: as §1

[4] = system: dextran sodium sulfate (DSS)-induced acute colitis; experiment: DSS-induced acute colitis mouse model, exemplary compounds (Example 7); assay type: in vivo; details: mice, oral gavage twice daily for 9 days, indirubin molar equivalent of 15 mg/kg
Procedure: Eight week old female C57 BL/6J mice, around 20 g body weight purchased from Charles River Laboratories were bred in specific pathogen free IVC cages (4 mice in each cage) in a temperature controlled (20±2° C.) room with a 12 hour light-dark cycle. Chow pellets and tap water were available ad libitum. All experimental protocols were approved by the Institutional Animal Care and Use Committee. The mice were acclimated at the animal facility for at least of three days before the experiments. To generate dextran sodium sulfate (DSS)-induced acute colitis, the mice were induced with 3% DSS (molecular weight 36,000-50,000; […] DSS solution was freshly prepared and changed daily. These mice were euthanized on day 8 (9th day of the experiment). Body weight and disease activity index (DAI) soring were recorded daily to assess the colitis. DAI score was the sum of the weight loss score, stool score and bleeding subscores. A blinded scoring system was employed to assess the colitis. The DAI scorer blinded to the group information and animal ID was responsible for the stool consistency and bleeding evaluations. DAI scoring standards will be followed as below. A study was conducted as in set forth in Example 6. […] Mice in the vehicle group were given only 200 μL distilled water by gavage.

[5] = Indirubin solubility in biorelevant media (FaSSIF, FaSSGF), HPLC; assay type: physicochemical; details: FaSSIF 24 hr, 37° C., 5 μg/mL indirubin or molar equivalent
Procedure: Biorelevant media was prepared as per the supplier's (Biorelevant) method, using FaSSIF/FeSSIF/FaSSGF powders. In brief, FaSSGF media was prepared using 0.06 g/L FaSSIF/FeSSIF/FaSSGF powder in 2 g/L NaCl solution, pH adjusted to 1.6 with 1N HCl. FaSSIF media was prepared with 2.24 g/L FaSSIF/FeSSIF/FaSSGF powder in sodium phosphate buffer, pH adjusted to 6.5 with 1N NaOH. (Sodium phosphate buffer prepared as a 0.42 g/L NaOH, 3.95 g/L NaH2PO4·H2O, 6.19 g/L NaCl solution).
Solubility assessments were performed as follows. An individual flask was prepared for each media and time point. Flasks were placed in a shaking water bath kept at 37° C. Flasks were removed from the bath at specified time points of 1 hour, 4 hours and 24 hours, allowed to cool, and an aliquot taken and filtered.

[6] = Indirubin levels in plasma, colon and lung of colitis mice, LC-MS/MS (Example 8); assay type: in vivo; details: six hours after the last oral dose, indirubin molar equivalent of 15 mg/kg twice daily
Procedure: Five animals from each group in Example 7 were euthanized six hours after the last oral dose. At this time plasma, lung and colon was harvested. Colon was washed three times in cold phosphate buffered saline (PBS) to remove colon contents.
Indirubin was detected utilizing LC-MS/MS.
To prepare samples, an aliquot of 20 μL unknown sample, calibration standard, quality control, single blank and double blank samples were added to the 96-well plate. Samples (except the double blank) for plasma were quenched with 100 μL internal standard respectively (double blank sample was quenched with 100 μL acetonitrile (ACN)), samples (except the double blank) for liver, lung and colon were quenched with 80 μL internal standard respectively (double blank sample was quenched with 80 μL ACN), and then the mixture was vortex-mixed for 5 minutes at 800 rpm and centrifuged for 15 minutes at 3220 g (4000 rpm), at 4° C. 50 μL supernatant was transfer to another clean 96-well plate and the supernatant were directly injected for LC-MS/MS analysis.

SMILES: O=C1/C(=C2/C(=O)N(CO)c3ccccc32)Nc2ccccc21 [Compound 8]
Disease activity index (DAI) versus placebo [1]: lower disease activity index | EC50 [2]: 0.0256 µM | EC50 [3]: 0.0715 µM | Activation of the AhR compared with equimolar synthetic indirubin ([3]; human Huh7 and rat H4IIE cells): activates the AhR to an equal or greater extent, and at the same or lower concentration, than an equimolar amount of synthetic indirubin | EC50 greater than the EC50 for indirubin ([3]; human Huh7 cells): about 20%

SMILES: O=C1/C(=C2/C(=O)N(CN3CCCC3)c3ccccc32)Nc2ccccc21 [Compound 41]
Efficacy (percent of initial body weight, DAI score) [4]: more effective than an equimolar amount of indirubin

EC50 [2]: ~0.654 µM
SMILES: O=C1Nc2ccccc2/C1=C1/Nc2ccccc2C1=O [indirubin, reference compound]

% indirubin recovered in solution [5]: 0.1% | Mean Indirubin Level, Colon [6]: 2.43 ng/g | Mean Indirubin Level, Lung [6]: 2.12 ng/g | Mean Indirubin Level, Plasma [6]: 0.05 ng/mL
SMILES: O=C1Nc2ccccc2/C1=C1/Nc2ccccc2C1=O [synthetic indirubin]
Colon length versus vehicle [4]: vehicle only have a shorter colon than those treated with synthetic indirubin
